Source: US20230108906A1, “SUBSTITUTED BICYCLIC AND TRICYCLIC UREAS AND AMIDES, ANALOGUES THEREOF, AND METHODS USING SAME” (Arbutus Biopharma Corporation, priority 2019, published 2023)

The molecules below were run on HBV rcDNA in HepDE19 cells (assay: HepDE19 assay with bDNA quantitation of HBV rcDNA). Conditions: Hepatitis B virus, HepDE19, 168 h, inhibition of rcDNA formation in HepDE19 cells (HepG2 derived), Tet-free medium, 7 day incubation, Quantigene 2.0 bDNA readout, top concentration 25 μM; read-out: DE-19bDNA EC50.
Type: cell-based, hepatitis B virus (HBV)
Outline: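 HepDE19 cells (HepG2-derived, Tet-regulated HBV) switched to Tet-free medium, then treated 7 days at 37 °C with compound, 8-point titration from 25 μM, 0.5% DMSO. rcDNA quantified by bDNA with HBV probes; EC50/EC90 via 4-parameter fit. Viability (CC50) by CellTiter-Glo ATP on 5,000 cells/well after 4 days.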

| Compound | EC50 [µM] |
| --- | --- |
| CCN(C(=O)Nc1ccc(F)c(C#N)c1)[C@@H]1COCc2[nH]c(=O)c3cc(F)c(F)cc3c21 (single isomer, unassigned) [Compound 138] | 0.01 |
| CC(=O)N1Cc2[nH]c(=O)c3cc(F)ccc3c2C(N(C)C(=O)Nc2ccc(F)c(Cl)c2)C1 (single isomer, unassigned) [Compound 157, 1-(3-Acetyl-8-fluoro-6-oxo-1,2,3,4,5,6-hexahydrobenzo[c][1,7]naphthyridin-1-yl)-3-(3-chloro-4-fluorophenyl)-1-methylurea] | 1.2 |

Same assay, conditions: Hepatitis B virus, HepDE19, 168 h, read-out: DE-19bDNA EC50 (uM), inhibition of rcDNA formation in HepDE19 cells (HepG2 derived), Tet-free medium, 7 day incubation, Quantigene 2.0 bDNA readout, top concentration 25 μM

| Compound | EC50 [µM] |
| --- | --- |
| [2H]C([2H])([2H])N(C(=O)Nc1ccc(F)c(Cl)c1)[C@]1([2H])COCc2[nH]c(=O)c3cc(F)c(F)cc3c21 (single isomer, unassigned) [Compound 146] | 0.01 |

Same assay, conditions: inhibition of rcDNA formation in HepDE19 cells (HepG2 derived), Tet-free medium, 7 day incubation, Quantigene 2.0 bDNA readout, top concentration 25 μM; read-out: DE-19bDNA EC50

| Compound | EC50 [µM] |
| --- | --- |
| NS(=O)(=O)CCN(C(=O)Nc1ccc(F)c(Cl)c1)C1COCc2[nH]c(=O)c3cc(F)c(F)cc3c21 (single isomer, unassigned) [Compound 136, 2-(3-(3-Chloro-4-fluorophenyl)-1-(8,9-difluoro-6-oxo-1,4,5,6-tetrahydro-2H-pyrano[3,4-c]isoquinolin-1-yl)ureido)ethane-1-sulfonamide] | 2.9 |
| NS(=O)(=O)CCN(C(=O)Nc1ccc(F)c(Cl)c1)C1COCc2[nH]c(=O)c3cc(F)c(F)cc3c21 (single isomer, unassigned) [Compound 137, 2-(3-(3-Chloro-4-fluorophenyl)-1-(8,9-difluoro-6-oxo-1,4,5,6-tetrahydro-2H-pyrano[3,4-c]isoquinolin-1-yl)ureido)ethane-1-sulfonamide] | 0.01 |
| CS(=O)(=O)CCN(C(=O)Nc1ccc(F)c(Cl)c1)C1COCc2[nH]c(=O)c3cc(F)c(F)cc3c21 (single isomer, unassigned) [Compound 139, 3-(3-Chloro-4-fluorophenyl)-1-(8,9-difluoro-6-oxo-1,4,5,6-tetrahydro-2H-pyrano[3,4-c]isoquinolin-1-yl)-1-(2-(methylsulfonyl)ethyl)urea] | 0.6 |
| CS(=O)(=O)CCN(C(=O)Nc1ccc(F)c(Cl)c1)C1COCc2[nH]c(=O)c3cc(F)c(F)cc3c21 (single isomer, unassigned) [Compound 140, 3-(3-Chloro-4-fluorophenyl)-1-(8,9-difluoro-6-oxo-1,4,5,6-tetrahydro-2H-pyrano[3,4-c]isoquinolin-1-yl)-1-(2-(methylsulfonyl)ethyl)urea] | 0.01 |
| CN(C(=O)Nc1ccc(F)c(Cl)c1)C1CNCc2[nH]c(=O)c3cc(F)c(F)cc3c21 (single isomer, unassigned) [Compound 149, 3-(3-Chloro-4-fluorophenyl)-1-(8,9-difluoro-6-oxo-1,2,3,4,5,6-hexahydrobenzo[c][1,7]naphthyridin-1-yl)-1-methylurea] | 0.25 |
| CN(C(=O)Nc1ccc(F)c(Cl)c1)C1CNCc2[nH]c(=O)c3cc(F)c(F)cc3c21 (single isomer, unassigned) [Compound 150, 3-(3-Chloro-4-fluorophenyl)-1-(8,9-difluoro-6-oxo-1,2,3,4,5,6-hexahydrobenzo[c][1,7]naphthyridin-1-yl)-1-methylurea] | 0.01 |
| CN(C(=O)Nc1ccc(F)c(Cl)c1)C1CNCc2[nH]c(=O)c3cc(F)ccc3c21 (single isomer, unassigned) [Compound 153, 3-(3-Chloro-4-fluorophenyl)-1-(8-fluoro-6-oxo-1,2,3,4,5,6-hexahydrobenzo[c][1,7]naphthyridin-1-yl)-1-methylurea] | 0.73 |
| CN(C(=O)Nc1ccc(F)c(Cl)c1)C1CNCc2[nH]c(=O)c3cc(F)ccc3c21 (single isomer, unassigned) [Compound 154, 3-(3-Chloro-4-fluorophenyl)-1-(8-fluoro-6-oxo-1,2,3,4,5,6-hexahydrobenzo[c][1,7]naphthyridin-1-yl)-1-methylurea] | 0.03 |
| CN1Cc2[nH]c(=O)c3cc(F)ccc3c2C(N(C)C(=O)Nc2ccc(F)c(Cl)c2)C1 (single isomer, unassigned) [Compound 155, 3-(3-Chloro-4-fluorophenyl)-1-(8-fluoro-3-methyl-6-oxo-1,2,3,4,5,6-hexahydrobenzo[c][1,7]naphthyridin-1-yl)-1-methylurea] | 9.2 |
| CN1Cc2[nH]c(=O)c3cc(F)ccc3c2C(N(C)C(=O)Nc2ccc(F)c(Cl)c2)C1 (single isomer, unassigned) [Compound 156, 3-(3-Chloro-4-fluorophenyl)-1-(8-fluoro-3-methyl-6-oxo-1,2,3,4,5,6-hexahydrobenzo[c][1,7]naphthyridin-1-yl)-1-methylurea] | 0.42 |
| CC(=O)N1Cc2[nH]c(=O)c3cc(F)ccc3c2C(N(C)C(=O)Nc2ccc(F)c(Cl)c2)C1 (single isomer, unassigned) [Compound 158, 1-(3-Acetyl-8-fluoro-6-oxo-1,2,3,4,5,6-hexahydrobenzo[c][1,7]naphthyridin-1-yl)-3-(3-chloro-4-fluorophenyl)-1-methylurea] | 2.3 |
| CC(=O)N1Cc2[nH]c(=O)c3cc(F)c(F)cc3c2C(N(C)C(=O)Nc2ccc(F)c(Cl)c2)C1 (single isomer, unassigned) [Compound 159, 1-(3-Acetyl-8,9-difluoro-6-oxo-1,2,3,4,5,6-hexahydrobenzo[c][1,7]naphthyridin-1-yl)-3-(3-chloro-4-fluorophenyl)-1-methylurea] | 12 |
| CC(=O)N1Cc2[nH]c(=O)c3cc(F)c(F)cc3c2C(N(C)C(=O)Nc2ccc(F)c(Cl)c2)C1 (single isomer, unassigned) [Compound 160, 1-(3-Acetyl-8,9-difluoro-6-oxo-1,2,3,4,5,6-hexahydrobenzo[c][1,7]naphthyridin-1-yl)-3-(3-chloro-4-fluorophenyl)-1-methylurea] | 0.82 |
| CN(C(=O)Nc1ccc(F)c(C#N)c1)C1CNCc2[nH]c(=O)c3cc(F)ccc3c21 (single isomer, unassigned) [Compound 161, 3-(3-Cyano-4-fluorophenyl)-1-(8-fluoro-6-oxo-1,2,3,4,5,6-hexahydrobenzo[c][1,7]naphthyridin-1-yl)-1-methylurea] | 17 |
| CN(C(=O)Nc1ccc(F)c(C#N)c1)C1CNCc2[nH]c(=O)c3cc(F)ccc3c21 (single isomer, unassigned) [Compound 162, 3-(3-Cyano-4-fluorophenyl)-1-(8-fluoro-6-oxo-1,2,3,4,5,6-hexahydrobenzo[c][1,7]naphthyridin-1-yl)-1-methylurea] | 0.17 |
| CN1Cc2[nH]c(=O)c3cc(F)ccc3c2C(N(C)C(=O)Nc2ccc(F)c(C#N)c2)C1 (single isomer, unassigned) [Compound 163, 3-(3-Cyano-4-fluorophenyl)-1-(8-fluoro-3-methyl-6-oxo-1,2,3,4,5,6-hexahydrobenzo[c][1,7]naphthyridin-1-yl)-1-methylurea] | 23 |
| CN1Cc2[nH]c(=O)c3cc(F)ccc3c2C(N(C)C(=O)Nc2ccc(F)c(C#N)c2)C1 (single isomer, unassigned) [Compound 164, 3-(3-Cyano-4-fluorophenyl)-1-(8-fluoro-3-methyl-6-oxo-1,2,3,4,5,6-hexahydrobenzo[c][1,7]naphthyridin-1-yl)-1-methylurea] | 1.3 |
| CC(=O)N1Cc2[nH]c(=O)c3cc(F)ccc3c2C(N(C)C(=O)Nc2ccc(F)c(C#N)c2)C1 (single isomer, unassigned) [Compound 165, 1-(3-Acetyl-8-fluoro-6-oxo-1,2,3,4,5,6-hexahydrobenzo[c][1,7]naphthyridin-1-yl)-3-(3-cyano-4-fluorophenyl)-1-methylurea] | ≥ 25 |
| CC(=O)N1Cc2[nH]c(=O)c3cc(F)ccc3c2C(N(C)C(=O)Nc2ccc(F)c(C#N)c2)C1 (single isomer, unassigned) [Compound 166, 1-(3-Acetyl-8-fluoro-6-oxo-1,2,3,4,5,6-hexahydrobenzo[c][1,7]naphthyridin-1-yl)-3-(3-cyano-4-fluorophenyl)-1-methylurea] | 11 |
| CN1Cc2[nH]c(=O)c3cc(F)c(F)cc3c2C(N(C)C(=O)Nc2ccc(F)c(Cl)c2)C1 (single isomer, unassigned) [Compound 167, 3-(3-Chloro-4-fluorophenyl)-1-(8,9-difluoro-3-methyl-6-oxo-1,2,3,4,5,6-hexahydrobenzo[c][1,7]naphthyridin-1-yl)-1-methylurea] | 7.6 |
| CN1Cc2[nH]c(=O)c3cc(F)c(F)cc3c2C(N(C)C(=O)Nc2ccc(F)c(Cl)c2)C1 (single isomer, unassigned) [Compound 168, 3-(3-Chloro-4-fluorophenyl)-1-(8,9-difluoro-3-methyl-6-oxo-1,2,3,4,5,6-hexahydrobenzo[c][1,7]naphthyridin-1-yl)-1-methylurea] | 0.18 |
| CN(C(=O)Nc1ccc(F)c(Cl)c1)C1CN(CCO)Cc2[nH]c(=O)c3cc(F)ccc3c21 (single isomer, unassigned) [Compound 169, 3-(3-Chloro-4-fluorophenyl)-1-(8-fluoro-3-(2-hydroxyethyl)-6-oxo-1,2,3,4,5,6-hexahydrobenzo[c][1,7]naphthyridin-1-yl)-1-methylurea] | 6.6 |
| CN(C(=O)Nc1ccc(F)c(Cl)c1)C1CN(CCO)Cc2[nH]c(=O)c3cc(F)ccc3c21 (single isomer, unassigned) [Compound 170, 3-(3-Chloro-4-fluorophenyl)-1-(8-fluoro-3-(2-hydroxyethyl)-6-oxo-1,2,3,4,5,6-hexahydrobenzo[c][1,7]naphthyridin-1-yl)-1-methylurea] | 3.1 |
